The target in the test is T1, DNA topoisomerase IB (LdTopIB) (Leishmania donovani, UniProt A0A3Q8IHS4+Q8WQM6).
T1 sequence (A0A3Q8IHS4 1-635): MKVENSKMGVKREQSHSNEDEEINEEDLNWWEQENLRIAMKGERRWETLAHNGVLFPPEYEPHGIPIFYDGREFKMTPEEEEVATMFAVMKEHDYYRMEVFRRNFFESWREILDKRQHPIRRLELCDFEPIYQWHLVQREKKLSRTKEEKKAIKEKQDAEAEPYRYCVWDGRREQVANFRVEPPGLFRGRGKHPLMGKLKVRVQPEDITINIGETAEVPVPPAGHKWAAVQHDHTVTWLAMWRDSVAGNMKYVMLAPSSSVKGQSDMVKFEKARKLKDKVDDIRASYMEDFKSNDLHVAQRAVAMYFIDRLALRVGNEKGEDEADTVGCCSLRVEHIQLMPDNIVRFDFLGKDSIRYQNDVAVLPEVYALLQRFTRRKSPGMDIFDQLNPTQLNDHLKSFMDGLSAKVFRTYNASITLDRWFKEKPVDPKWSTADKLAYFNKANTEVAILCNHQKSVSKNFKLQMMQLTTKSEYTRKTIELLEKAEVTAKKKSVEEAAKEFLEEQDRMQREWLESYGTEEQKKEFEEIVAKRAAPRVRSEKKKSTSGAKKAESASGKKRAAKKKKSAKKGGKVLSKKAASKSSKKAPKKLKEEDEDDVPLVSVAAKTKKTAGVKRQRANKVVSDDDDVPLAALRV
T1 sequence (Q8WQM6 1-262): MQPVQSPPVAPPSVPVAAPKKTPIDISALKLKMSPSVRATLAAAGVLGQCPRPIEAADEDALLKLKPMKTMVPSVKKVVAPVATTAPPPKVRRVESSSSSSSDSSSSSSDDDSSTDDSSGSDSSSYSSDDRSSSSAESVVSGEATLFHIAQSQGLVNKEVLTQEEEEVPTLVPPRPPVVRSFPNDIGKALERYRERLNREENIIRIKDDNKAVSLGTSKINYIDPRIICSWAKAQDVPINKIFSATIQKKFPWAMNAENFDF
The test is described as follows: supercoiled plasmid DNA relaxation assay with purified recombinant enzyme. Format: biochemical.

Usually IC50 stands for the point on the concentration scale where inhibition reaches its midpoint. `CC(C)CCC/C=C\CCCCCCCCCC(=O)O` [compound 1, (Z)-16-methyl-11-heptadecenoic acid]: the half-maximal inhibitory concentration (IC50) stood at 62.3 ± 0.7 µM.

For the origin of these results see PMC3073714 (Chemistry and physics of lipids, 2010).
